Source: patent publication US5061722A, “Cis, endo-2-azabicyclo-[3.3.0]-octane-3-carboxylic acids, a process for their preparation, agents containing these compounds and their use” (Hoechst AG, priority 1981, dated 1991)

Tests used:
[1] = tested on: pressor reaction induced by 310 ng of angiotensin I; assay: Intraduodenal administration to anesthetized rats, ED50; type: in vivo, rat
Protocol: (§1) 1. Intravenous administration to anesthetized rats, 50% inhibition of the pressor reaction induced by 310 ng of angiotensin I, 30 minutes after administration of the dose . . . ED50
2. Intraduodenal administration to anesthetized rats

[2] = tested on: pressor reaction triggered off by intravenous administration of angiotensin I; assay: Oral administration to conscious rats, inhibition of the pressor reaction triggered off by intravenous angiotensin I; type: in vivo, rat; details: 1 mg/kg
[3] = tested on: pressor reaction induced by 310 ng of angiotensin I; assay: Intravenous administration to anesthetized rats, 50% inhibition of the pressor reaction induced by 310 ng of angiotensin I; type: in vivo; details: Rattus norvegicus, 0.5 h, 30 minutes after administration of the dose
Protocol: as §1

[4] = Rattus norvegicus, read-out: ED50

Row | SMILES | ED50 [1] | ED50 [1, 4] | duration of the 90% inhibition of the pressor reaction [2] | inhibition of the pressor reaction triggered off by intravenous administration of angiotensin I [2] | ED50 [3]
1 | C[C@H](N[C@@H](CC(=O)c1ccccc1)C(=O)OCc1ccccc1)C(=O)N1C(C(=O)O)CC2CCCC21 (relative stereo) [X=C6H5, Y=--, Z=O, R1=CH3, R2=C7H7, N-(1-S-Carbobenzyloxy-3-oxo-3-phenyl-propyl)-S-alanyl-2-cis,endo-azabicyclo-[3.3.0]-octane-3-carboxylic acid] | 0.25 mg/kg |  |  |  | 
2 | CCOC(=O)[C@H](CC(=O)c1ccccc1)N[C@@H](C)C(=O)N1[C@H](C(=O)O)C[C@@H]2CCC[C@@H]21 [X=C6H5, Y=--, Z=O, R1=CH3, R2=C2H5, N-(1-S-carbethoxy-3-oxo-3-phenyl-propyl)-S-alanyl-cis,endo-2-azabicyclo-[3.3.0]-octane-3-S-carboxylic acid] |  | 0.28 mg/kg |  |  | 
3 | CCOC(=O)[C@H](CCc1ccccc1)N[C@@H](C)C(=O)N1[C@H](C(=O)O)C[C@@H]2CCC[C@@H]21 [X=C6H5, Y=H, Z=H, R1=CH3, R2=C2H5, N-(1-S-Carbethoxy-3-phenyl-propyl)-S-alanyl-cis,endo-2-azabicyclo-[3.3.0]-octane-3-S-carboxylic acid] |  | 0.05 mg/kg | over 6 hours | 90% | 8.3 µg/kg
4 | C[C@H](N[C@@H](CCc1ccccc1)C(=O)O)C(=O)N1[C@H](C(=O)O)C[C@@H]2CCC[C@@H]21 [X=C6H5, Y=H, Z=H, R1=CH3, R2=H, N-(1-S-Carboxy-3-phenyl-propyl)-S-alanyl-cis,endo-2-azabicyclo-[3.3.0]-octane-3-S-carboxylic acid] |  | 0.6 mg/kg |  |  | 2.7 µg/kg
